Reference: US20160030631A1, “Injectable Biodegradable Bone Matrix for Multiple Myeloma Lesion Augmentation and Osteoporosis” (THE UNIVERSITY OF TOLEDO, priority 2013, published 2016)
Where a SMILES comes first, the peptide text is derived from it. Bridges are numbered along the chain shown (N, C = ends). The star is where a group is joined. Cbz = O=C(OCc1ccccc1)*

What was measured:
RAW 264.7 culture = test: Anti-osteoclastogenesis: cathespin K expression by real-time PCR; format: cell-based; conditions: MG132 released from cement; 5-day TNFalpha treatment
Protocol: The anti-osteoclastogenesis of MG132-loaded cement was tested after a 5-day treatment of TNFalpha in RAW 264.7 culture. In this case, expression of the marker gene cathespin K was measured by real-time PCR.

[1] = system: pre-osteoclast RAW 264.7 cell culture; test: TRAP+ cell staining for osteoclast activation with WP9QY-loaded cement; format: cell-based; conditions: WP9QY released from MWCNT/CPC or CPC; 5 days; TNFalpha stimulated; FIG. 6
Description: The MWCNT/CPC or CPC alone were loaded with WP9QY ([…], [SEQ ID NO: 1]), which is a peptide compound designed to compete ligand binding of RANK and to inhibit osteoclastogensis. The WP9QY peptide has a sequence of H-[…]OH [SEQ ID NO: 1], and was developed based on a structural analysis of the ligand binding site on TNF receptor 1 and RANK to inhibit osteoclast-activating. This cyclic peptide mimics the most critical tumor necrosis factor (TNF) recognition loop on TNF receptor 1, and prevents interaction of TNF with its receptor. The peptide was added directly to the cement paste to form the bone filler composition. Briefly, 100 μL of 1 mg/mL WP9QY was added into 0.5 mL DI water when mixing with 1 g of cement powder.
The cement pellet was washed with ethanol and left in a pre-osteoclast RAW 264.7 cell culture treated to trigger cell differentiation. To measure anti-osteoclast maturation of WP9QY released from the cement, the culture was stained for TRAP+ (osteoclast-like) cells after 5 days. TRAP+ cells are a marker for active osteoclasts after stimulated by the cytokine TNFalpha. The results, shown in FIG. 6, indicate that both composites can carry and release WP9QY.

## CC(C)C[C@@H](C=O)NC(=O)[C@H](CC(C)C)NC(=O)[C@H](CC(C)C)NC(=O)OCc1ccccc1 [MG132] (Cbz-Leu-Leu-Leu-aldehyde)
RAW 264.7 culture
  osteoclast maturation (cathespin K expression): osteoclast maturation can be inhibited

## H-Tyr-Cys-Trp-Ser-Gln-Tyr-Leu-Cys-Tyr-OH (H-YCWSQYLCY-OH; disulfide 2-8 (inferred)) [WP9QY]
[1]
  osteoclast activation (TRAP+ cells): osteoclast activation was inhibited
